Reference: patent US20210347778A1, “HYDRAZINOPURINE COMPOUND AND TRIAZOLOPURINE COMPOUND FOR INHIBITING XANTHINE OXIDASE” (TERA STONE CO., LTD, priority 2018, published 2021)

What was measured:
[1] = rats; cited from earlier work
[2] = target: T1, cow milk-derived xanthine oxidase (XOD) (Bos taurus, UniProt P80457); experiment: Xanthine oxidase inhibition activity (inhibition of uric acid formation); format: biochemical; details: for IC50: xanthine 100 μM, XOD 10 mU/mL, 50 mM phosphate buffer pH 7.4, room temperature 15 minutes, O.D. 292 nm; for xanthine oxidase inhibition activity compared with allopurinol: in words, versus allopurinol
T1 construct: cow milk-derived xanthine oxidase (XOD) (10 mU/mL); from tissue; host or cells: cow milk
Experimental: In a 50 mM phosphate buffer (pH 7.4), xanthine (100 μM), cow milk-derived xanthine oxidase (XOD) (10 mU/mL), and a test compound were mixed and the mixture was incubated at room temperature for 15 minutes.

[3] = patients administered allopurinol; cited from earlier work

T1 sequence (P80457 whole entry): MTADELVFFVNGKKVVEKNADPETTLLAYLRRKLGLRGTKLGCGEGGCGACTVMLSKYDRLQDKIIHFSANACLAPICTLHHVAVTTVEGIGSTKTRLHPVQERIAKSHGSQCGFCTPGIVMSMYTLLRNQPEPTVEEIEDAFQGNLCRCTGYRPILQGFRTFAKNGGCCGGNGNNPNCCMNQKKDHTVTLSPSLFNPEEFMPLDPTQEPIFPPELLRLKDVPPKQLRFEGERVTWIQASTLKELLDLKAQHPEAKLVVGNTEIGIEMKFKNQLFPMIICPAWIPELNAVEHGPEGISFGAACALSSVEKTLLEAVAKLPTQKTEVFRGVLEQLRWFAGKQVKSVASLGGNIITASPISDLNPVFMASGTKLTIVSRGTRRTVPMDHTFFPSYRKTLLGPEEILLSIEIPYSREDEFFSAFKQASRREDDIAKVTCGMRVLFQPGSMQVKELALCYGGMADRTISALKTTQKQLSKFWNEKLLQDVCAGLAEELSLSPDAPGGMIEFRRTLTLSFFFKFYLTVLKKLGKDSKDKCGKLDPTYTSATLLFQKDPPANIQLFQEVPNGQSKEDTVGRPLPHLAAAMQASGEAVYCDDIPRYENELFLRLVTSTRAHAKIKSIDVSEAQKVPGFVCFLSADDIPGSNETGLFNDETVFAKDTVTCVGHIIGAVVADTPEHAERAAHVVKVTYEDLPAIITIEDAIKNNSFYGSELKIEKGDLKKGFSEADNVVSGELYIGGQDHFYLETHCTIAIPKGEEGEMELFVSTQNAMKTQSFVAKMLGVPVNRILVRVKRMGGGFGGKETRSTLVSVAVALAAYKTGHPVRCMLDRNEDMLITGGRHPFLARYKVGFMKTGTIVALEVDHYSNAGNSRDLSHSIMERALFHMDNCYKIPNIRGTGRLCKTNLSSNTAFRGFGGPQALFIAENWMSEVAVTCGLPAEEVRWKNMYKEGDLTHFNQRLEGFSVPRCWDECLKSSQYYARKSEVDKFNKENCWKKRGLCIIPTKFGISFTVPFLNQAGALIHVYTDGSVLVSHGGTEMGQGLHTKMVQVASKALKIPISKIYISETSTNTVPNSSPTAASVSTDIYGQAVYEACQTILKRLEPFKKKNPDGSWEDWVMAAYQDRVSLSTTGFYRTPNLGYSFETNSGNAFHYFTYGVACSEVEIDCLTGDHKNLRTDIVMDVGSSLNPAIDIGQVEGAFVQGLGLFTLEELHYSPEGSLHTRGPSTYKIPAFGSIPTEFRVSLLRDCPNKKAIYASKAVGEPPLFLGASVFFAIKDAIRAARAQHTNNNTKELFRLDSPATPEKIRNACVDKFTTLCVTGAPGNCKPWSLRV

SMILES | IC50 [2] [µM] | melting point [°C] | further results
Cc1nc(-c2ccc(OCC(C)C)c(C#N)c2)sc1C(=O)O [Febuxostat] |  |  | excreted through non-renal excretion pathways [1]: about 50%
O=c1nc(NN=Cc2ccc(F)cc2)c2[nH]cnc2[nH]1 [I-1] | 0.038 |  | 
O=c1nc(NN=Cc2ccc(Cl)cc2)c2[nH]cnc2[nH]1 [I-2] | 0.025 |  | 
CN(C)c1ccc(C=NNc2nc(=O)[nH]c3nc[nH]c23)cc1 [I-3] | 0.075 |  | 
O=c1nc(NN=Cc2ccc([N+](=O)[O-])cc2)c2[nH]cnc2[nH]1 [I-4] | 0.045 |  | 
COc1ccc(C=NNc2nc(=O)[nH]c3nc[nH]c23)cc1 [I-5] | 0.057 |  | 
O=c1nc(NN=Cc2ccc3c(c2)OCO3)c2[nH]cnc2[nH]1 [I-6] | 0.063 |  | 
O=c1nc(NN=Cc2ccc(O)cc2)c2[nH]cnc2[nH]1 [I-7] | 0.045 |  | 
CCCCCCCC=NNc1nc(=O)[nH]c2nc[nH]c12 [I-8, 6-n-octylidenehydrazino-7H-purin-2(3H)-one] | 2.02 | 190 | 
O=c1nc(NN=Cc2ccccc2)c2[nH]cnc2[nH]1 [I-9] | 0.05 | 300 | 
Cc1ccc(C=NNc2nc(=O)[nH]c3nc[nH]c23)cc1 [I-10] | 0.02 | > 300 | 
COc1cc(C=NNc2nc(=O)[nH]c3nc[nH]c23)cc(OC)c1OC [I-11] | 0.208 |  | 
O=c1nc(NN=Cc2ccc(O)c(O)c2)c2[nH]cnc2[nH]1 [I-12] | 0.349 | > 300 | 
O=c1nc(NN=Cc2ccc(O)c(O)c2O)c2[nH]cnc2[nH]1 [I-13] | 1.48 | > 300 | 
COc1ccccc1C=NN(C)c1nc(=O)[nH]c2nc[nH]c12 [I-14] | 0.079 |  | 
COc1cccc(C=NN(C)c2nc(=O)[nH]c3nc[nH]c23)c1 [I-15] | 0.1 |  | 

SMILES | IC50 [2] [µM] | melting point [°C] | further results
COc1ccc(C=NN(C)c2nc(=O)[nH]c3nc[nH]c23)cc1 [I-16] | 0.076 |  | 
CN(N=Cc1ccc(F)cc1)c1nc(=O)[nH]c2nc[nH]c12 [I-17] | 0.116 |  | 
CN(N=Cc1ccc(O)cc1)c1nc(=O)[nH]c2nc[nH]c12 [I-18] | 0.093 |  | 
CCCCCCCC=NN(C)c1nc(=O)[nH]c2nc[nH]c12 [I-19, 6-(1-methyl-2-n-octylidenehydrazino)-7H-purin-2(3H)-one] | > 10 | 248 | 
COc1cc(C=NN(C)c2nc(=O)[nH]c3nc[nH]c23)cc(OC)c1OC [I-20] | > 10 | > 300 | 
CN(N=Cc1ccc(O)c(O)c1)c1nc(=O)[nH]c2nc[nH]c12 [I-21] | > 10 | > 300 | 
CN(N=Cc1ccc(O)c(O)c1O)c1nc(=O)[nH]c2nc[nH]c12 [I-22] | > 10 | > 300 | 
Cc1nc2[nH]c(=O)nc(NN=Cc3ccc([N+](=O)[O-])cc3)c2[nH]1 [I-33, 8-methyl-6-(4-nitrobenzylidenehydrazino)-7H-purin-2(3H)-one] |  | > 330 | 
O=c1nc(NN=Cc2ccccc2)c2[nH]c(-c3ccccc3)nc2[nH]1 [I-34] | > 10 | 318 | 
O=c1nc(NN=Cc2ccc(Cl)cc2)c2[nH]c(-c3ccccc3)nc2[nH]1 [I-35] | > 10 | > 330 | 
Cc1ccc(C=NNc2nc(=O)[nH]c3nc(-c4ccccc4)[nH]c23)cc1 [I-36] | > 10 | 321 | 
COc1ccc(C=NNc2nc(=O)[nH]c3nc(-c4ccccc4)[nH]c23)cc1 [I-37] | 9.21 | 314 | xanthine oxidase inhibition activity compared with allopurinol [2]: higher xanthine oxidase inhibition activity than allopurinol
O=c1nc(NN=Cc2ccc([N+](=O)[O-])cc2)c2[nH]c(-c3ccccc3)nc2[nH]1 [I-38, 6-(4-nitrobenzylidenehydrazino)-8-phenyl-7H-purin-2(3H)-one] | 4.48 | > 330 | xanthine oxidase inhibition activity compared with allopurinol [2]: higher xanthine oxidase inhibition activity than allopurinol
O=c1nc(NN=Cc2ccc([N+](=O)[O-])cc2)c2[nH]c(-c3ccc(Cl)cc3)nc2[nH]1 [I-43, 8-(4-chlorophenyl)-6-(4-nitrobenzylidenehydrazino)-7H-purin-2(3H)-one] |  | 229 | 
Oc1ncnc2[nH]ncc12 [allopurinol] |  |  | patients suffering from side effects (severe skin disorders, hypersensitivity vasculitis) [3]: three to five

The next lines start with results.

IC50 [2] [µM] | melting point [°C] | SMILES | further results
> 10 | 262 | O=c1[nH]c2nc[nH]c2c2ncnn12 [II-1] | 
> 10 | 277 | Cc1nc2c3[nH]cnc3[nH]c(=O)n2n1 [II-2] | 
2.57 | > 300 | O=c1[nH]c2nc[nH]c2c2nc(-c3ccccc3)nn12 [II-3] | 
0.066 | 285 | O=c1[nH]c2nc[nH]c2c2nc(-c3ccc(Cl)cc3)nn12 [II-4] | 
0.13 | 288 | COc1ccc(-c2nc3c4[nH]cnc4[nH]c(=O)n3n2)cc1 [II-5] | 
9.2 | > 270 | CCCCCCCc1nc2c3[nH]cnc3[nH]c(=O)n2n1 [II-6] | 
2.4 | > 300 | Cc1ccc(-c2nc3c4[nH]cnc4[nH]c(=O)n3n2)cc1 [II-7] | 
4.27 | > 300 | O=c1[nH]c2nc[nH]c2c2nc(-c3ccc([N+](=O)[O-])cc3)nn12 [II-8] | 
2.01 | > 283 | COc1cc(-c2nc3c4[nH]cnc4[nH]c(=O)n3n2)cc(OC)c1OC [II-9] | 
1.48 | > 285 | O=c1[nH]c2nc[nH]c2c2nc(-c3ccc(O)c(O)c3)nn12 [II-10] | 
> 10 | > 330 | Cn1cnc2c1c1nc(-c3ccc(Cl)cc3)nn1c(=O)n2C [II-14] | 
> 10 | > 330 | Cn1cnc2c1c1nc(-c3ccc([N+](=O)[O-])cc3)nn1c(=O)n2C [II-17] | 
> 10 | > 330 | Cc1nc2[nH]c(=O)n3nc(-c4ccc([N+](=O)[O-])cc4)nc3c2[nH]1 [II-24] | 
9.91 | > 330 | O=c1[nH]c2nc(-c3ccccc3)[nH]c2c2ncnn12 [II-25] | xanthine oxidase inhibition activity compared with allopurinol [2]: higher xanthine oxidase inhibition activity than allopurinol
> 10 | > 330 | O=c1[nH]c2nc(-c3ccccc3)[nH]c2c2nc(-c3ccc([N+](=O)[O-])cc3)nn12 [II-31] | 
1.09 | > 330 | O=c1[nH]c2nc(-c3ccc(Cl)cc3)[nH]c2c2ncnn12 [II-32] | xanthine oxidase inhibition activity compared with allopurinol [2]: higher xanthine oxidase inhibition activity than allopurinol
 | 264 | Cn1cnc2c1c1nncn1c(=O)n2C [III-1, 6,9-dimethyl-9H-1,2,4-triazolo[3,4-i]purin-5(6H)-one] | 
 | 270 | Cc1nnc2c3c(ncn3C)n(C)c(=O)n12 [III-2, 3,6,9-trimethyl-9H-1,2,4-triazolo[3,4-i]purin-5(6H)-one] | 
